Measured values: publication PMC7247349, “Reactions of Plasmodium falciparum Ferredoxin:NADP^+ Oxidoreductase with Redox Cycling Xenobiotics: A Mechanistic Study” (International Journal of Molecular Sciences, 2020)

Legend:
[1] = target: T1, Ferredoxin:NADP^+ oxidoreductase (PfFNR) (Plasmodium falciparum, UniProt C6KT68); assay: steady-state kinetics; competitive inhibition versus AcPyP+ in transhydrogenase reaction; stopped-flow FAD reduction; assay type: biochemical
T1 construct: gene FNR; recombinant PfFNR
T1 sequence (C6KT68 56-371): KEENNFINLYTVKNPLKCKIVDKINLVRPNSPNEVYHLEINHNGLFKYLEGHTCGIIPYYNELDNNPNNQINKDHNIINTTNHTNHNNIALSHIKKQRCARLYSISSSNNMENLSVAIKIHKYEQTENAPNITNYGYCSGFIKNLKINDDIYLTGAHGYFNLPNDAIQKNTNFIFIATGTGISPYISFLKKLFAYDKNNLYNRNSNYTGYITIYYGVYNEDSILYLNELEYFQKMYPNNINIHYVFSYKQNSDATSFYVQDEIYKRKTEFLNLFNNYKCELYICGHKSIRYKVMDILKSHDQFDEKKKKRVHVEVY
Text: steady-state kinetics; competitive inhibition versus AcPyP+ in transhydrogenase reaction; stopped-flow FAD reduction on Ferredoxin:NADP^+ oxidoreductase (PfFNR) | NADPH acts as a competitive inhibitor to AcPyP^+, occupying the pyridine nucleotide binding site of the reduced enzyme form

[2] = target: T1, Ferredoxin:NADP^+ oxidoreductase (PfFNR); assay: steady-state product inhibition of juglone reductase reaction; assay type: biochemical

| Compound | Ki [1] [µM] | Ki [2] [µM] |
| --- | --- | --- |
| NC(=O)C1=CN([C@@H]2O[C@H](COP(=O)(O)OP(=O)(O)OC[C@H]3O[C@@H](n4cnc5c(N)ncnc54)[C@H](OP(=O)(O)O)[C@@H]3O)[C@@H](O)[C@H]2O)C=CC1 [NADPH] | 140 ± 20 |  |
| NC(=O)c1ccc[n+]([C@@H]2O[C@H](COP(=O)([O-])OP(=O)(O)OC[C@H]3O[C@@H](n4cnc5c(N)ncnc54)[C@H](OP(=O)(O)O)[C@@H]3O)[C@@H](O)[C@H]2O)c1 [NADP^+] |  | 1420 ± 130 |
